For this data set the following is noted: Liquid, Closed cell (Static) method.

The results in this text go back to the NIST ThermoML archive (doi:10.1016/j.fluid.2015.03.009).

Values joined by “and” are separate entries in the source; they are usually repeats but may differ in a detail not shown here. Equal values may be shown once. ± gives the expanded uncertainty stated by the source.

For the compound `CCO` [ethanol], the vapor or sublimation pressure – broadly, the pressure of vapour in equilibrium with the condensed phase – was 88.59 ± 0.36 kPa and 88.58 ± 0.36 kPa (348.15 K); 224.37 ± 0.48 kPa and 224.31 ± 0.48 kPa (373.15 K).
In the case of `CCCCCC` [hexane], the “vapor or sublimation pressure” value by setting is: (348.15 K) 123.12 ± 0.38 kPa and 123.03 ± 0.38 kPa and 122.84 ± 0.38 kPa; (373.15 K) 247.22 ± 0.55 kPa and 245.99 ± 0.55 kPa and 245.79 ± 0.55 kPa.
Consider `CO` [methanol], for which the “vapor or sublimation pressure” value (348.15 K) is 150.71 ± 0.54 kPa and 150.69 ± 0.54 kPa and 150.67 ± 0.54 kPa; the “vapor or sublimation pressure” value (373.15 K) is 352.64 ± 0.74 kPa and 352.62 ± 0.74 kPa and 352.7 ± 0.74 kPa.
